Where two headings read alike, the source gives them in different places.
Columns and labels:
[1] = in vivo
Method: The first-in-human Phase 1 study with coenzyme Q10 nanosuspension (40 mg/ml) was conducted in 50 patients with advanced solid tumors. The objectives were to assess the safety, maximum tolerated dose, PK and PD of coenzyme Q10, specifically a 4% coenzyme Q10 nanosuspension formulation (as described in WO 2011/112900, the entire contents of which are expressly incorporated herein by reference), administered as a 4-hour IV infusion 3 times weekly in 28-day cycles. […] Plasma concentration profiles and PK parameters were determined from blood samples collected pre-dose and at intervals to 48 hours post-dose.

[2] = test system: MIAPaCa-2 human pancreatic tumor cells; test: Pancreatic cancer (MIAPaCa-2) mouse model, survival; assay type: in vivo, NOD scid gamma (NSG) mice
Method: For example, FIG. 7 is a schematic describing a study investigating three different dosing regimens for coenzyme Q10 in an animal model of pancreatic cancer. The effect of coenzyme Q10 alone or in combination with gemcitabine on total survival in a preclinical mouse model of pancreatic cancer was evaluated.
Equal numbers of MIAPaCa-2 human pancreatic tumor cells were suspended in […]® and injected into NOD scid gamma (NSG) mice. The NSG mouse model is devoid of innate and adaptive immune systems and provides a biological environment suitable for the growth of human tumors in vivo. The MIAPaCa-2 is a well established human derived pancreatic carcinoma cell line that can be used to establish pancreatic tumors in immunosuppressed animals. MIAPaca-2 tumors were allowed to develop for, on average, at least 3 weeks in mice prior to initiation of treatment. Animals with palpable tumors were randomized into treatment groups.
The three treatment regimens utilized for the study included once/daily, twice/daily or thrice/daily dosing of coenzyme Q10 at either 50 mg/kg body weight (Regimen 1 & Regimen 2) or 50 mg/kg or 75 mg/kg body weight (Regimen 3) alone or in combination with a fixed dose of gemcitabine (150) mg/kg body weight). For example, mice treated twice/daily received two 50 mg/kg doses of coenzyme Q10, for a total of 100 mg/kg/day, and mice treated thrice daily received three 50 mg/kg doses of coenzyme Q10 for a total of 150 mg/kg/day. Each group of animals received chemotherapeutic treatment for a minimum of three cycles and was maintained to determine outcomes.
Next, a continuous infusion protocol was implemented to determine the effect of constant coenzyme Q10 administration on survival in an animal model of pancreatic cancer. An infusion pump was surgically installed in the animals to facilitate continuous infusion of coenzyme Q10 at a dose of 25 mg/kg, 50 mg/kg or 100 mg/kg body weight per day. Treatment was continued throughout the entire duration of the study.

[3] = test system: cancer cell lines HT-29, A549, Hep3B, MDA-MB231, SkBr-3, MCF7, MiaPaCa-2, SKOV-3, PC-3; test: Cancer cell line viability in vitro; assay type: cell-based; settings: 100 μM coenzyme Q10; evident as early as 24 hours, increased progressively between 48 and 72 hours; all cell lines tested
Method: Various cancer cell lines were treated with coenzyme Q10 at 100 μM concentration to determine the effect on cancer cell viability. The cancer cell lines tested were HT-29 (colon), A549 (lung), Hep3B (liver), MDA-MB231 (breast), SkBr-3 (breast), MCF7 (breast), MiaPaCa-2 (pancreas), SKOV-3 (ovary), and PC-3 (prostate). Cell viability was measured between 24 and 72 hours. […] For example. […] The text at the bottom of the graph in FIG. 6 represents the gene mutation and mutation rate for each cell line. For example, the HT-29 cell line contains the APC mutation with a mutation rate of 126.

[4] = Phase 1a/b study, 96-hour continuous IV infusion: pharmacokinetics; assay type: in vivo, human
Method: Blood samples for pharmacokinetic and pharmacodynamic analyses are collected during each cycle of monotherapy and combination therapy. Urine samples for determination of coenzyme Q10 renal clearance are collected only during Cycle 1 of monotherapy and combination therapy. A PET scan is performed within 2 weeks prior to starting treatment and after 2 weeks of coenzyme Q10 treatment, and 8 weeks of treatment on Arm 1 or 10 weeks of treatment on Arm 2. Core biopsies (2-3) are performed at the time of baseline and Week 2 PET scan for patients who opt-in to participate in these exploratory studies.

[5] = test system: LnCaP human prostate adenocarcinoma cells; test: Prostate cancer (LnCaP) mouse model, survival; assay type: in vivo, immunocompromised mice
Method: The observed improvement in animal cohorts administered coenzyme Q10 as a continuous infusion was repeated in other animal models of cancer. For example. […] LnCaP human prostate adenocarcinoma cells were injected into immunocompromised mice. Coenzyme Q10 was administered using two different dosing regimens. One cohort was administered a total dose of 75 mg/kg body weight per day by dosing 25 mg/kg body weight every 8 hours (multiple bolus regimen). In a second cohort, an infusion pump was surgically installed in the animals to facilitate continuous infusion of coenzyme Q10 at a total dose of 75 mg/kg body weight per day. Treatment was continued throughout the entire duration of the study.

coenzyme Q10
Tmax and Cmax ([1]; human): generally associated with the end of the infusion
AUC0-168 (estimated weekly) ([1]; human, 176 mg/kg): 68,787 μg*hr/mL
Cmax (estimated weekly) ([1]; human, 176 mg/kg): 1,558 μg/mL
AUC0-168 (estimated weekly) ([1]; human, 235 mg/kg): 74,640 μg*hr/mL
Cmax (estimated weekly) ([1]; human, 235 mg/kg): 1,592 μg/mL
AUC0-168 (estimated weekly) ([1]; human, 313 mg/kg): 125,953 μg*hr/mL
Cmax (estimated weekly) ([1]; human, 313 mg/kg): 2,198 μg/mL
t1/2 ([1]; human, iv): 2.18 to 18.0 h
accumulation with increasing duration of dosing [1]: no apparent accumulation
dose-proportionality ([1]; 22.5 mg/kg): dose-proportionality appeared linear
survival ([2]; coenzyme Q10 alone, once/twice/thrice daily 50 mg/kg (or 75 mg/kg), vs untreated or chemotherapy alone): increase in survival
survival rates ([2]; coenzyme Q10 in combination with gemcitabine 150 mg/kg): higher survival rates than coenzyme Q10 alone or gemcitabine alone
survival rates ([2]; continuous infusion): higher survival rates than those treated with continuous infusion of 50 mg/kg or 25 mg/kg
survival rate ([2]; continuous infusion 25 mg/kg body weight per day vs 50 mg/kg three times per day): higher survival rate
animal survival ([2]; increasing 50 mg/kg doses from once/daily to three times per day): significant improvement in animal survival
cell viability [3]: decrease in cell viability
increase in the intratumor concentration of Coenzyme Q11 ([4]; Patient 1, gastric adenocarcinoma, dose level 1 (66 mg/kg week)): 15 fold
pharmacokinetics ([4]; initial tested doses): linear distribution
survival rate ([5]; continuous infusion 75 mg/kg body weight per day vs multiple bolus regimen): even higher survival rate
survival rate ([5]; multiple bolus regimen, total 75 mg/kg body weight per day (25 mg/kg every 8 hours)): higher survival rate than the untreated control

Reference: patent US12653776B2, “Methods of treatment of cancer by continuous infusion of coenzyme Q10” (priority 2013, dated 2026)
